molecular target: RNA-directed RNA polymerase (Hepacivirus hominis, UniProt O39930); assay: Inhibition HCV NS5B-mediated RNA synthesis; assay type: functional
Sequence (O39930 whole entry): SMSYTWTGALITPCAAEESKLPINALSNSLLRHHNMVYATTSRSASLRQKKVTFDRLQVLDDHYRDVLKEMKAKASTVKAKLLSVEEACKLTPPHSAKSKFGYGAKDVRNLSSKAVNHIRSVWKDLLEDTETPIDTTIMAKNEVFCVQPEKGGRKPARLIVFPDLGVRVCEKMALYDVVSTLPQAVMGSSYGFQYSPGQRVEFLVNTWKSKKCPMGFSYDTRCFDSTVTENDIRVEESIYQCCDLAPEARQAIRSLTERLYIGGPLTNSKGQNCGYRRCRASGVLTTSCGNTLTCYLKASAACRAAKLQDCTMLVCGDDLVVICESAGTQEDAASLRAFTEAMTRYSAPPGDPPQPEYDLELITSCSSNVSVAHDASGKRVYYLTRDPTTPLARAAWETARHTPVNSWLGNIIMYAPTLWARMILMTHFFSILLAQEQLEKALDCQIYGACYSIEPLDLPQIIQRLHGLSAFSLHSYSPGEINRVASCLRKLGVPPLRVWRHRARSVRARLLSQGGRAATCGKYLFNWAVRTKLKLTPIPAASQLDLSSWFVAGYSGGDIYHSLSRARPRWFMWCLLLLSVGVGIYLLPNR

IC50 | Compound
47 µM | CO[C@@H]1[C@H](O)[C@@H](CO)O[C@H]1n1cnc2c(N)ncnc21
22 µM | Nc1ncnc2c1ncn2[C@@H]1O[C@H](CO)C[C@H]1O [CORDYCEPIN]
1.6 µM | CO[C@@H]1[C@H](O)[C@@H](CO)O[C@H]1n1cnc2c(=O)[nH]c(N)nc21
1.8 µM | Nc1nc2c(ncn2[C@@H]2O[C@H](CO)[C@@H](F)[C@H]2O)c(=O)[nH]1
4 µM | C[C@@]1(O)[C@H](O)[C@@H](CO)O[C@H]1n1cnc2c(=O)[nH]cnc21
50 µM | Nc1ncnc2c1ncn2[C@@H]1O[C@H](CO)[C@@H](O)[C@@H]1O [VIDARABINE]
20 µM | Nc1nc2c(ncn2[C@@H]2O[C@H](CO)C(O)[C@H]2O)c(=O)[nH]1 (single isomer, unassigned)
2.6 µM | C[C@@]1(O)[C@H](O)[C@@H](CO)O[C@H]1n1cnc2c(N)nc(N)nc21
28 µM | Nc1ncnc2c1ncn2[C@@H]1O[C@H](CO)[C@@H](F)[C@H]1O

Further lines, the compound ahead of its results:

Compound | IC50
C[C@]1(O)[C@H](O)[C@@H](CO)O[C@H]1n1cnc2c(N)ncnc21 | > 50 µM
C[C@@]1(O)[C@@H](CO)O[C@@H](n2cnc3c(N)ncnc32)[C@@H]1O | > 50 µM
C[C@@]1(O)[C@H](O)[C@@H](CO)O[C@H]1n1cnc2c(N)ncnc21 | 1.9 µM
C[C@@]1(O)[C@H](O)[C@@H](CO)O[C@H]1n1cnc2c(=O)[nH]c(N)nc21 [2'-B-METHYL-GUANOSINE] | 0.13 µM
CC[C@@]1(O)[C@H](O)[C@@H](CO)O[C@H]1n1cnc2c(N)ncnc21 | > 50 µM
C[C@]1(O)[C@@H](CO)O[C@@H](n2cnc3c(N)ncnc32)[C@@H]1O | > 50 µM
Nc1ncnc2c1ncn2[C@@H]1O[C@H](CO)[C@@H](O)[C@H]1F [2'-BETA-FLUORO-2',3'-DEOXYADENOSINE] | > 50 µM
C[C@@]1(O)[C@H](O)[C@@H](CO)O[C@H]1n1cnc2cnc(N)nc21 | 46 µM
CO[C@]1(C)[C@H](O)[C@@H](CO)O[C@H]1n1cnc2c(N)ncnc21 | > 50 µM
Nc1nc2c(ncn2[C@@H]2O[C@H](CO)C[C@H]2O)c(=O)[nH]1 | 0.6 µM

From ChEMBL document CHEMBL1149159, “Structure-activity relationship of purine ribonucleosides for inhibition of hepatitis C virus RNA-dependent RNA polymerase” (J Med Chem, 2004)
